Experiment: gradient 5% acetonitrile 3 min, to 50% in 2 min, to 85% in 15 min, held 3 min, 100 µL/min
Conditions: column: Zorbax Extend-C18 2.1 x 50 mm; eluents: water / acetonitrile, 0.1% formic acid
Outline: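 Each retention time is based on an adduct peak selected computationally and verified by manual inspection. Measurements used HPLC–quadrupole time-of-flight mass spectrometry in positive and negative ionization mode on mixtures of ~100 pure standards. Chromatography ran on a Zorbax Extend-C18 column (2.1 × 50 mm, 1.8 μm) at 100 μL/min with water and acetonitrile, each containing 0.1% formic acid, and dead and dwell volumes of 40 μL and 900 μL.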

| Compound | RP-LC retention time |
| --- | --- |
| CCN1c2cc(F)ccc2C(=O)NC12CCN(C(=O)c1ccc(OC)cc1OC)CC2 | 781 s |
| COc1cc(Cl)c(C)cc1N1C=C(C#N)S(=O)(=O)c2ccc(F)cc21 | 972 s |
| Cn1nc2n(c1=O)CCN(C(=O)C1CC=CCC1)CC2 (stereo unspecified) | 624 s |
| CC(=O)N1CCCN(C2=NS(=O)(=O)C(c3ccc(C)cc3)=C2C)CC1 | 699 s |
| CC[C@H](C)Nc1c(C(=O)OC)c(=O)[nH]c2c(Cl)cccc12 | 783 s |
| Cc1cc(C)cc(C(=O)NCCc2nc3cccnc3n2C(C)C)c1 | 744 s |
| Cc1nc2c(n1C)CN(C(=O)Cc1ccc(F)cc1)CC2 | 582 s |
| CCCNC(=O)c1ccc(CN2CC(=O)N3CCCCC3C2=O)cc1 (stereo unspecified) | 1120 s |
| COc1ccc(NS(=O)(=O)c2cc(-c3[nH]ncc3C(=O)N(C)C)oc2C)cc1F | 672 s |
| Cc1nn(-c2cc(N3CCCC3)ncn2)c(C)c1CCC(=O)NCCc1ccco1 | 721 s |
| CCOc1ccc(NC(=O)C2(C)Oc3cccnc3N(CC)C2=O)cc1 (stereo unspecified) | 913 s |
| CCCS(=O)(=O)c1nc2ccc(NS(C)(=O)=O)cc2s1 | 755 s |
| Cc1ccc(C(=O)N2CCc3[nH]nc(C(=O)N(C)C)c3C2)cc1F | 625 s |
| COCc1ncc(C)n1CC1CCN(Cc2sccc2C)CC1 | 534 s |
| CC(C)Oc1ccc(CN2CC(c3nc(-c4ccsc4)nn3C)C2)cc1 | 696 s |
| O=C(CCn1ccnc1)N1CCC2(CCC(=O)N(CC3CC3)CC2)CC1 | 577 s |
| CCOC(=O)N1CCC(NC(=O)C(=O)NCc2cccs2)CC1 | 692 s |
| Cc1sc2ccn(C)c(=O)c2c1C(=O)N1CCC2(CC1)OCCO2 | 626 s |
| C[C@@H](NC(=O)c1ccc(F)cc1)C(=O)NCc1cscn1 | 627 s |
| CC1(O)CCOC2(CCN(Cc3ccccc3OC(F)(F)F)CC2)C1 (stereo unspecified) | 632 s |

| Compound | RP-LC retention time |
| --- | --- |
| Cc1cc(C)c(S(=O)(=O)N2CCc3c(c(-c4nnc(-c5ccccc5)o4)nn3C)C2)c(C)c1 | 1090 s |
| Cc1ccc(NC(=O)C2(C)Oc3cccnc3NC2=O)cc1 (stereo unspecified) | 727 s |
| COC(=O)c1cccc(NC(=O)c2sc(-c3cn(C(C)C)c4ncccc34)nc2C)c1 | 1060 s |
| Cc1c(-c2nnc(C(=O)NCCCN3CCCCCC3)o2)oc2ccccc12 | 674 s |
| CC(C)CCNc1ccc(-c2nc(-c3ccc(F)cc3)no2)cn1 | 1230 s |
| O=C(NCCCN1CCCCC1)c1csc(-c2ccc(N3CCCC3)nc2)n1 | 562 s |
| CC1CCCCN1CCNC(=O)C1CCN(c2nc3cccnc3s2)CC1 (stereo unspecified) | 582 s |
| c1cc(-c2noc(-c3ccoc3)n2)cc(N2CCCC2)n1 | 640 s |
| CN1CCCc2cc(C(CNC(=O)C(=O)NCc3ccc4c(c3)OCO4)N3CCCC3)ccc21 (stereo unspecified) | 709 s |
| CN1C[C@@H]2C(=O)N(CCc3ccccc3)C(=O)[C@@H]2C1 | 605 s |
| CC(C)NC(=O)c1cc2cc(Br)ccc2[nH]1 | 879 s |
| Cc1ccc(C)c(-c2csc(NC(=O)c3cccs3)n2)c1 | 1040 s |
| COc1ccc(Cl)cc1S(=O)(=O)N1CCC2(CC1)c1nccn1CCN2C | 646 s |
| CCN1CCN(CCNC(=O)CN2CCCc3nc(C4CC4)ncc3C2=O)CC1 | 564 s |
| CC(C)NCc1ccc(-c2cc(Cl)ccc2Cl)o1 | 709 s |
| NC(=O)c1ncn2c(=O)n(CCCl)nnc12 | 645 s |
| COc1ccc(F)cc1S(=O)(=O)NCC1(C)CCOCC1 | 785 s |
| CC(C)CC(NC(=O)OCc1ccccc1)C(=O)NC(Cc1ccccc1)C(=O)CCl (stereo unspecified) | 1010 s |
| CC(C)c1cc(=O)n(CC(=O)Nc2nc3c(s2)CCCC3)cn1 | 692 s |
| COc1ccc(CN2C(=O)COC[C@H]2C(=O)NCc2ccco2)c(OC)c1 | 704 s |

More lines, now with the values ahead:

| RP-LC retention time | Compound |
| --- | --- |
| 610 s | CCc1cc(C(=O)N2CCN(CC(C)C)CC2)nc2cc(-c3ccccn3)nn12 |
| 1150 s | COc1ccc(CCNS(=O)(=O)c2cccc(-c3nc(-c4ccc(C)cc4)no3)c2)cc1OC |
| 723 s | CC(C)c1noc(-c2cccnc2N2CCCN(Cc3ccccc3Cl)CC2)n1 |
| 1250 s | CCCC(=O)Nc1sc2c(c1C(=O)Nc1ccccc1C)CCC2 |
| 617 s | Cc1nnc2ccc(N3CCN(C(=O)COc4ccc5c(c4)OCO5)CC3)nn12 |
| 655 s | CCn1c(N2CCN(C(=O)Nc3ccccc3OC)CC2)nc2ccccc21 |
| 1340 s | O=C(COc1ccc(F)cc1)Nc1ccc(-c2nc(-c3ccc(Cl)cc3)no2)cc1 |
| 675 s | O=C(c1ccc(Cl)s1)N1CCN(c2nnc3ccccn23)CC1 |
| 802 s | O=C1CCCc2cc(S(=O)(=O)N3CCC(C(=O)N4CCc5ccccc54)CC3)ccc2N1 |
| 790 s | Cc1ccc(S(=O)(=O)N2CCCC(Cn3c(C4CC4)nc4cccnc43)C2)cc1 (stereo unspecified) |
| 677 s | CCc1cccc2c1[nH]c1cc(NC(=O)CCc3c(C)[nH]c(=O)[nH]c3=O)ccc12 |
| 725 s | CN1C(=O)c2ccccc2Oc2ccc(C(=O)NC3CCCC3)cc21 |
| 929 s | Cc1nn2c(CNS(=O)(=O)Cc3cc(F)cc(F)c3)c(-c3ccccc3)nc2s1 |
| 1170 s | O=C(c1cccs1)N1CC(Oc2ccc(-c3nc(-c4ccccc4)no3)cc2)C1 |
| 702 s | O=C(Cn1c(=O)oc2ccccc21)N1CCC(c2noc(-c3cccnc3)n2)C1 (stereo unspecified) |
| 799 s | O=C(CCC(=O)c1ccc(F)cc1)Nc1cnn(-c2ncc(N3CCCC3)cn2)c1 |
| 906 s | O=C(Nc1ccccc1F)C(=O)c1cn(CC(=O)N2CCOCC2)c2ccccc12 |
| 841 s | COc1ccc(-c2cn3c(CC(=O)Nc4cccc(C(F)(F)F)c4)csc3n2)cc1OC |
| 1020 s | COc1ccc(-c2noc(Cc3nnc(-c4cccc(F)c4)o3)n2)cc1 |
| 831 s | CCCC(=O)Nc1nc(-c2ccc3c(c2)N(C)C(=O)C(C)O3)cs1 (stereo unspecified) |
| 706 s | COc1ccc(NC(=O)C2CCN(c3cc(N4CCSCC4)ncn3)CC2)cc1Cl |
| 879 s | CCCN1C(=O)C2CCC(=O)N2c2ccc(C(=O)Nc3cccc(SC)c3)cc21 (stereo unspecified) |
| 697 s | O=C(Cn1c(=O)cc(C(=O)N2CCCCC2)c2ccccc21)NC1CCCC1 |
| 615 s | Nc1nc(Nc2ccccc2F)nc2cccc(F)c12 |
| 1020 s | COc1cccc(-c2nnc(Cc3nc(-c4ccc(F)cc4)no3)o2)c1 |
| 1220 s | CCCOc1nc2ccccc2nc1N1CCCC(C(=O)NCc2cccc(C)c2)C1 (stereo unspecified) |

| RP-LC retention time | Compound |
| --- | --- |
| 732 s | O=C(Nc1nccnc1C(=O)NC1CC1)c1ccccc1 |
| 660 s | Cn1cc(C(CNC(=O)Nc2cccc(F)c2)c2cccnc2)c2ccccc21 (stereo unspecified) |
| 615 s | O=C(c1ccc(F)c(F)c1)N1CCN(c2cc(-c3cccnc3)[nH]n2)CC1 |
| 791 s | COc1ccc(N2CCN(c3cc(SCC(=O)Nc4ccc(OC)c(OC)c4)ncn3)CC2)cc1 |
| 1230 s | Cc1ccc(S(=O)(=O)N2CCCC2c2nc(-c3ccc(F)cc3)no2)cc1Cl (stereo unspecified) |
| 578 s | O=C(COc1ccc(F)cc1)NCC1CCC(c2nc3ccccc3[nH]2)CC1 (stereo unspecified) |
| 731 s | CC1CCN(CCCNc2nc3ccncc3n(Cc3ccccc3)c2=O)CC1 |
| 735 s | CCN1c2ccccc2C(=O)NC12CCN(C(=O)Nc1ccc(OC)cc1)CC2 |
| 750 s | O=C(Nc1ccc2c(c1)OCO2)C1CC(=O)N(CCc2c[nH]c3ccc(F)cc23)C1 (stereo unspecified) |
| 751 s | Cc1ccc(-c2noc(CCN3CCN(c4ccccc4)CC3)n2)cc1 |
| 642 s | COc1cccc(CNC(=O)NCCc2cn(C)c3ncccc23)c1 |
| 601 s | COc1ccc(-n2c(N)cc(=O)nc2SCC(=O)NC2CCCCC2)cc1 |
| 1190 s | O=C(Nc1ccc(Cl)cc1F)C1CCN(c2nccnc2Sc2ccccc2)CC1 |
| 942 s | Cc1ccc(-n2nc(N3CCCC(C(=O)NCc4ccccc4F)C3)ccc2=O)cc1Cl (stereo unspecified) |
| 858 s | COc1cccc(CNC(=O)C2(C)CCCN(C(=O)Nc3ccc(F)cc3)C2)c1 (stereo unspecified) |
| 713 s | CSc1ccc(NC(=O)N2CCC(c3cc(N)on3)CC2)cc1 |
| 818 s | Cc1ccc(NC(=O)C2CCN(C(=O)C3Sc4ccccc4NC3=O)CC2)cc1C (stereo unspecified) |
| 928 s | O=S(=O)(c1ccccc1)N1CCCC(c2nnnn2-c2ccccc2)C1 (stereo unspecified) |
| 1050 s | CCCCOc1ccc(-c2cc3c4nn(CC(=O)NC5CCCC5)c(=O)n4ccn3n2)cc1 |
| 777 s | CC1CCN(CCNc2ccc(-c3nc(-c4ccc(F)cc4)no3)cn2)CC1 |
| 775 s | Cc1cc(C2CCCN2C(=O)Cc2ccc(F)cc2)no1 (stereo unspecified) |
| 803 s | Cc1cc2c(c(=O)n(-c3ccccc3)c(=O)n2CC(=O)Nc2ccccc2F)n1C |
| 1300 s | CC(C)c1ccc(-c2csc(NC(=O)c3cccc(Cl)c3)n2)cc1 |
| 743 s | O=C(Cc1c[nH]c2ccccc12)NC1CCN(c2cc(-c3ccc(Cl)cc3)[nH]n2)C1 (stereo unspecified) |
| 691 s | O=C(CSc1ccc(N2CCCC(C(=O)NC3CC3)C2)nn1)Nc1ccc2c(c1)CCC2 (stereo unspecified) |

Reference: the METLIN SMRT retention time set (Domingo-Almenara et al. 2019)
